#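 Here, GI50 denotes the concentration required for 50% inhibition of growth. TGI denotes the concentration required for complete inhibition of growth.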
# What was measured:
# Test in all cases: inhibition of tumour cell growth, NCI panel, 384-well format
# NCI-H460 NSCLC = tested on: NCI-H460 NSCLC
# HCT-116 colon = tested on: HCT-116 colon
# RPMI-8226 leukemia = tested on: RPMI-8226 leukemia
# SF-539 CNS = tested on: SF-539 CNS
# SK-MEL-5 melanoma = tested on: SK-MEL-5 melanoma
# OVCAR-3 ovarian = tested on: OVCAR-3 ovarian
# NCI-H322M lung = tested on: NCI-H322M lung
# MCF7 breast = tested on: MCF7 breast
# NCI/ADR-RES ovarian = tested on: NCI/ADR-RES ovarian
# EKVX NSCLC = tested on: EKVX NSCLC
# HCT-15 colon = tested on: HCT-15 colon
# T-47D breast = tested on: T-47D breast
# HS 578T breast = tested on: HS 578T breast
# MDA-MB-231 breast = tested on: MDA-MB-231 breast
# M14 melanoma = tested on: M14 melanoma
# CCRF-CEM leukemia = tested on: CCRF-CEM leukemia
# HL-60(TB) leukemia = tested on: HL-60(TB) leukemia
# A498 renal = tested on: A498 renal
# MDA-MB-468 breast = tested on: MDA-MB-468 breast
# OVCAR-5 ovarian = tested on: OVCAR-5 ovarian
# UACC-257 melanoma = tested on: UACC-257 melanoma
# SK-OV-3 ovarian = tested on: SK-OV-3 ovarian
# HOP-92 NSCLC = tested on: HOP-92 NSCLC
# NCI-H522 lung = tested on: NCI-H522 lung
# KM12 colon = tested on: KM12 colon
# MALME-3M melanoma = tested on: MALME-3M melanoma
# SNB-19 CNS = tested on: SNB-19 CNS
# MOLT-4 leukemia = tested on: MOLT-4 leukemia
# SK-MEL-28 melanoma = tested on: SK-MEL-28 melanoma
# CAKI-1 renal = tested on: CAKI-1 renal
# BT-549 breast = tested on: BT-549 breast
# U251 glioblastoma = tested on: U251 glioblastoma
# RXF 393 renal = tested on: RXF 393 renal
# SF-268 CNS = tested on: SF-268 CNS
# HOP-62 NSCLC = tested on: HOP-62 NSCLC
# SNB-75 CNS = tested on: SNB-75 CNS
# SN12C renal = tested on: SN12C renal
# HCC-2998 colon = tested on: HCC-2998 colon
# 786-0 renal = tested on: 786-0 renal
# TK-10 renal = tested on: TK-10 renal
# K-562 leukemia = tested on: K-562 leukemia
# OVCAR-8 ovarian = tested on: OVCAR-8 ovarian
# SF-295 CNS = tested on: SF-295 CNS
# SW-620 colon = tested on: SW-620 colon
# UACC-62 melanoma = tested on: UACC-62 melanoma
# UO-31 renal = tested on: UO-31 renal
# LOX IMVI melanoma = tested on: LOX IMVI melanoma
# IGROV1 ovarian = tested on: IGROV1 ovarian
# COLO 205 colon = tested on: COLO 205 colon
# HT29 colon = tested on: HT29 colon
# NCI-H23 lung = tested on: NCI-H23 lung
# A549 NSCLC = tested on: A549 NSCLC
# PC-3 prostate = tested on: PC-3 prostate
# DU-145 prostate = tested on: DU-145 prostate
# OVCAR-4 ovarian = tested on: OVCAR-4 ovarian
# ACHN renal = tested on: ACHN renal
# SR leukemia = tested on: SR leukemia
# NCI-H226 lung = tested on: NCI-H226 lung
smiles,measurement,setting,value
Cc1cc(Nc2ncc3c(n2)N(C)C(=O)N(c2cc(NC(=O)c4cccc(C(F)(F)F)c4)ccc2C)C3)n(C)n1,GI50,NCI-H460 NSCLC,52 nM
same,TGI,NCI-H460 NSCLC,> 100000 nM
same,GI50,HCT-116 colon,27.2 nM
same,TGI,HCT-116 colon,147 nM
same,GI50,RPMI-8226 leukemia,286 nM
same,TGI,RPMI-8226 leukemia,1790 nM
same,GI50,SF-539 CNS,72.6 nM
same,TGI,SF-539 CNS,577 nM
same,GI50,SK-MEL-5 melanoma,32.3 nM
same,TGI,SK-MEL-5 melanoma,8420 nM
same,GI50,OVCAR-3 ovarian,24.3 nM
same,TGI,OVCAR-3 ovarian,198 nM
same,GI50,NCI-H322M lung,22 nM
same,TGI,NCI-H322M lung,137 nM
same,GI50,MCF7 breast,880 nM
same,TGI,MCF7 breast,> 100000 nM
same,GI50,NCI/ADR-RES ovarian,1650 nM
same,TGI,NCI/ADR-RES ovarian,3240 nM
same,GI50,EKVX NSCLC,40.8 nM
same,TGI,EKVX NSCLC,305 nM
same,GI50,HCT-15 colon,224 nM
same,TGI,HCT-15 colon,1390 nM
same,GI50,T-47D breast,25.7 nM
same,TGI,T-47D breast,75.1 nM
same,GI50,HS 578T breast,15.6 nM
same,TGI,HS 578T breast,54.3 nM
same,GI50,MDA-MB-231 breast,11.3 nM
same,TGI,MDA-MB-231 breast,87.1 nM
same,GI50,M14 melanoma,< 10 nM
same,TGI,M14 melanoma,28.8 nM
same,GI50,CCRF-CEM leukemia,1340 nM
same,TGI,CCRF-CEM leukemia,3420 nM
same,GI50,HL-60(TB) leukemia,21.6 nM
same,TGI,HL-60(TB) leukemia,107 nM
same,GI50,A498 renal,14.2 nM
same,TGI,A498 renal,105 nM
same,GI50,MDA-MB-468 breast,25.1 nM
same,TGI,MDA-MB-468 breast,98.2 nM
same,GI50,OVCAR-5 ovarian,34.2 nM
same,TGI,OVCAR-5 ovarian,254 nM
same,GI50,UACC-257 melanoma,33.8 nM
same,TGI,UACC-257 melanoma,311 nM
same,GI50,SK-OV-3 ovarian,< 10 nM
same,TGI,SK-OV-3 ovarian,42.9 nM
same,GI50,HOP-92 NSCLC,17.3 nM
same,TGI,HOP-92 NSCLC,74.6 nM
same,GI50,NCI-H522 lung,< 10 nM
same,TGI,NCI-H522 lung,31.3 nM
same,GI50,KM12 colon,513 nM
same,TGI,KM12 colon,> 100000 nM
same,GI50,MALME-3M melanoma,< 10 nM
same,GI50,SNB-19 CNS,199 nM
same,TGI,SNB-19 CNS,> 100000 nM
same,GI50,MOLT-4 leukemia,22.1 nM
same,TGI,MOLT-4 leukemia,1360 nM
same,GI50,SK-MEL-28 melanoma,16.2 nM
same,TGI,SK-MEL-28 melanoma,83 nM
same,GI50,CAKI-1 renal,< 10 nM
same,TGI,CAKI-1 renal,20.5 nM
same,GI50,BT-549 breast,19.9 nM
same,TGI,BT-549 breast,73.3 nM
same,GI50,U251 glioblastoma,25.8 nM
same,TGI,U251 glioblastoma,1200 nM
same,GI50,RXF 393 renal,< 10 nM
same,TGI,RXF 393 renal,87.1 nM
same,GI50,SF-268 CNS,< 10 nM
same,TGI,SF-268 CNS,13.6 nM
same,GI50,HOP-62 NSCLC,87.6 nM
same,TGI,HOP-62 NSCLC,534 nM
same,GI50,SNB-75 CNS,18.9 nM
same,TGI,SNB-75 CNS,77.9 nM
same,GI50,SN12C renal,11.1 nM
same,TGI,SN12C renal,59.3 nM
same,GI50,HCC-2998 colon,45.8 nM
same,TGI,HCC-2998 colon,1090 nM
same,GI50,786-0 renal,40.1 nM
same,TGI,786-0 renal,302 nM
same,GI50,TK-10 renal,28.8 nM
same,TGI,TK-10 renal,120 nM
same,GI50,K-562 leukemia,< 10 nM
same,GI50,OVCAR-8 ovarian,34.1 nM
same,TGI,OVCAR-8 ovarian,337 nM
same,GI50,SF-295 CNS,1420 nM
same,TGI,SF-295 CNS,> 100000 nM
same,GI50,SW-620 colon,69.9 nM
same,TGI,SW-620 colon,1280 nM
same,GI50,UACC-62 melanoma,< 10 nM
same,TGI,UACC-62 melanoma,15 nM
same,GI50,UO-31 renal,134 nM
same,TGI,UO-31 renal,312 nM
same,GI50,LOX IMVI melanoma,< 10 nM
same,TGI,LOX IMVI melanoma,11 nM
same,GI50,IGROV1 ovarian,< 10 nM
same,TGI,IGROV1 ovarian,34.6 nM
same,GI50,COLO 205 colon,< 10 nM
same,TGI,COLO 205 colon,128 nM
same,GI50,HT29 colon,16.4 nM
same,TGI,HT29 colon,312 nM
same,GI50,NCI-H23 lung,24.4 nM
same,TGI,NCI-H23 lung,189 nM
same,GI50,A549 NSCLC,17.9 nM
same,TGI,A549 NSCLC,162 nM
same,GI50,PC-3 prostate,4250 nM
same,TGI,PC-3 prostate,> 100000 nM
Cc1nc(-c2nc(-c3ccc(OC(F)(F)F)cc3)no2)nn1Cc1cccc(N2CCC(S(C)(=O)=O)CC2)c1,GI50,NCI-H460 NSCLC,< 10 nM
same,TGI,NCI-H460 NSCLC,18.3 nM
same,GI50,HCT-116 colon,< 10 nM
same,TGI,HCT-116 colon,2820 nM
same,GI50,RPMI-8226 leukemia,< 10 nM
same,TGI,RPMI-8226 leukemia,1030 nM
same,GI50,DU-145 prostate,29400 nM
same,TGI,DU-145 prostate,> 100000 nM
same,GI50,SK-MEL-5 melanoma,< 10 nM
same,TGI,SK-MEL-5 melanoma,11800 nM
same,GI50,OVCAR-3 ovarian,5090 nM
same,TGI,OVCAR-3 ovarian,> 100000 nM
same,GI50,NCI-H322M lung,14.9 nM
same,TGI,NCI-H322M lung,16400 nM
same,GI50,MCF7 breast,221 nM
same,TGI,MCF7 breast,50800 nM
same,GI50,NCI/ADR-RES ovarian,< 10 nM
same,TGI,NCI/ADR-RES ovarian,51.5 nM
same,GI50,HCT-15 colon,6190 nM
same,TGI,HCT-15 colon,> 100000 nM
same,GI50,T-47D breast,< 10 nM
same,TGI,T-47D breast,23400 nM
same,GI50,CCRF-CEM leukemia,< 10 nM
same,TGI,CCRF-CEM leukemia,3590 nM
same,GI50,HL-60(TB) leukemia,156 nM
same,TGI,HL-60(TB) leukemia,290 nM
same,GI50,MDA-MB-468 breast,< 10 nM
same,TGI,MDA-MB-468 breast,< 10 nM
same,GI50,OVCAR-5 ovarian,86000 nM
same,TGI,OVCAR-5 ovarian,> 100000 nM
same,GI50,UACC-257 melanoma,56.5 nM
same,TGI,UACC-257 melanoma,827 nM
same,GI50,HOP-92 NSCLC,567 nM
same,TGI,HOP-92 NSCLC,46200 nM
same,GI50,OVCAR-4 ovarian,292 nM
same,TGI,OVCAR-4 ovarian,24800 nM
same,GI50,NCI-H522 lung,1080 nM
same,TGI,NCI-H522 lung,17600 nM
same,GI50,MALME-3M melanoma,23600 nM
same,TGI,MALME-3M melanoma,56600 nM
same,GI50,SNB-19 CNS,47200 nM
same,TGI,SNB-19 CNS,> 100000 nM
same,GI50,MOLT-4 leukemia,27.1 nM
same,TGI,MOLT-4 leukemia,208 nM
same,GI50,ACHN renal,10400 nM
same,TGI,ACHN renal,34600 nM
same,GI50,SK-MEL-28 melanoma,28000 nM
same,TGI,SK-MEL-28 melanoma,80900 nM
same,GI50,CAKI-1 renal,4660 nM
same,TGI,CAKI-1 renal,71100 nM
same,GI50,BT-549 breast,2100 nM
same,TGI,BT-549 breast,26200 nM
same,GI50,SR leukemia,< 10 nM
same,TGI,SR leukemia,< 10 nM
same,GI50,RXF 393 renal,< 10 nM
same,TGI,RXF 393 renal,< 10 nM
same,GI50,HOP-62 NSCLC,< 10 nM
same,TGI,HOP-62 NSCLC,20600 nM
same,GI50,SN12C renal,20400 nM
same,TGI,SN12C renal,> 100000 nM
same,GI50,TK-10 renal,8150 nM
same,TGI,TK-10 renal,78800 nM
same,GI50,K-562 leukemia,< 10 nM
same,TGI,K-562 leukemia,> 100000 nM
same,GI50,OVCAR-8 ovarian,< 10 nM
same,TGI,OVCAR-8 ovarian,19600 nM
same,GI50,SF-295 CNS,93.2 nM
same,TGI,SF-295 CNS,37000 nM
same,GI50,NCI-H226 lung,664 nM
same,TGI,NCI-H226 lung,39500 nM
same,GI50,SW-620 colon,11500 nM
same,TGI,SW-620 colon,> 100000 nM
same,GI50,UO-31 renal,7920 nM
same,TGI,UO-31 renal,36600 nM
same,GI50,LOX IMVI melanoma,47.9 nM
same,TGI,LOX IMVI melanoma,> 100000 nM
same,GI50,NCI-H23 lung,< 10 nM
same,TGI,NCI-H23 lung,< 10 nM
same,GI50,A549 NSCLC,2610 nM
same,TGI,A549 NSCLC,33900 nM
same,GI50,PC-3 prostate,17300 nM
same,TGI,PC-3 prostate,> 100000 nM
